# Test system: not given
# Test: not given
# Conditions: clinical use in IPF patients; cited from earlier work
row,Structure (SMILES),improvement in lung function (treatment effect) in IPF
1,Cc1ccc(=O)n(-c2ccccc2)c1 [Pirfenidone],about 10%

# Test system: Arp2/3 complex
# Test: in vitro actin polymerization test (pyrene-labeled actin)
# Assay type: biochemical
# Conditions: 10 μM, VCA domain protein, spherical actin monomers, 1 hour, compared to control (FIG. 1)
# Experimental: Although actin polymerization, which is a process of forming actin filaments from actin monomers, is involved in controlling cell movement, tissue fibrosis may be caused by the promotion of excessive α-SMA expression and induction of myofibroblast activation. Accordingly, an in vitro actin polymerization test was performed to confirm the actin polymerization controlling function of the compounds according to the present invention.
# Specifically, a pyrene-labeled spherical actin stock was diluted with general actin buffer (5 mM Tris-HCl pH 8.0, 0.2 mM CaCl2)) and incubated at 4° C. for 1 hour, thereby producing spherical actin monomers. Afterward, 80% of a supernatant was recovered by centrifugation at 20,000×g and 4° C. for 3 hours, and 0.1 mg/mL spherical actin monomers were prepared. The Arp2/3 complex, the VCA domain protein, and Compound 12, 38, or 59 (10 μM each) according to the present invention were added to the spherical actin monomers and an actin polymerization buffer and reacted at room temperature for 1 hour. The increased fluorescence intensity during the reaction from the spherical actin monomer to a fibrous actin polymer was measured using a microplate reader at an excitation wavelength of 360 nm and an emission wavelength of 407 nm. The degree of actin polymerization was shown relative to the maximum polymerization rate (arbitrary units).
row,Structure (SMILES),actin polymerization activity (maximum polymerization rate)
1,"CC(C(=O)N1CCN(c2ccccc2)c2cc(F)ccc21)N1CCCCC1 (stereo not drawn) [Compound 12, 1-(6-fluoro-4-phenyl-3,4-dihydroquinoxaline-1(2H)-yl)-2-(piperidin-1-yl)propan-1-one]",decreased compared to the control
2,"O=C(CCN1CCCCC1)N1CCN(c2ccc(F)cc2)c2cc(F)ccc21 [Compound 38, 1-(6-fluoro-4-(4-fluorophenyl)-3,4-dihydroquinoxaline-1(2H)-yl)-3-(piperidin-1-yl)propan-1-one]",decreased compared to the control

# Test system: MCR5 cell line
# Test: intracellular F-actin polymerization, TGF-β1-treated cells, confocal microscope
# Assay type: cell-based
# Conditions: 10 μM along with TGF-β1 (10 ng/mL), 48 hours (FIGS. 2A and 2B)
# Text: F-actin polymerization activates transcription factors involved in the activation of myofibroblasts and the initiation of fibrosis. Accordingly, when F-actin polymerization decreases, the expression of fibrosis-causing genes by the transcription factors may be inhibited, and the activation and fibrosis of muscle fiber cells may be reduced. Therefore, in this example, it was confirmed whether the compounds according to the present invention are effective in inhibiting F-actin polymerization.
# An MCR5 cell line was dispensed at 1×10^3 cells/well in a 96-well black micro plate and cultured in Medium 1 (10% FBS-containing MEM) in 5% CO2 at 37° C. for 24 hours. Subsequently, the above medium was exchanged with Medium 2 (0.5% FBS-containing MEM), a compound of the present invention was treated at 10 μM along with TGF-β1 (10 ng/mL), and the cells were incubated for 48 hours. After removing the entire batch, the cells were treated with each of CellMask Orange Actin Tracking Stain (Invitrogen) and NucBlue Live ReadyProbes (Invitrogen) to performing F-actin and cell nucleus staining in accordance with the manufacturer's recommended conditions. Cells treated with the staining reagents were incubated for 30 minutes at 5% CO2 and 37° C. while blocking light. After completing the incubation, the staining reagents were removed, fresh Medium 1 was added to the cells at 100 μL/well, and then the cells were incubated for 5 minutes, followed by removal of the medium. The above process was repeated three times. To observe the stained F-actin and cell nucleus, PBS was added to the plate at 100 μL/well, and then the cells were photographed using a confocal microscope (Leica) and analyzed using Image J software.
row,Structure (SMILES),intracellular F-actin polymerization
1,"CC(C(=O)N1CCN(c2ccccc2)c2cc(F)ccc21)N1CCCCC1 (stereo not drawn) [Compound 12, 1-(6-fluoro-4-phenyl-3,4-dihydroquinoxaline-1(2H)-yl)-2-(piperidin-1-yl)propan-1-one]",significantly reduced
2,"O=C(CCN1CCCCC1)N1CCN(c2ccc(F)cc2)c2cc(F)ccc21 [Compound 38, 1-(6-fluoro-4-(4-fluorophenyl)-3,4-dihydroquinoxaline-1(2H)-yl)-3-(piperidin-1-yl)propan-1-one]",significantly reduced

# Test system: α-SMA
# Test: α-SMA expression inhibitory ability in MRC5 cell line (Western blotting)
# Assay type: cell-based
# Conditions: TGF-β1 (10 ng/mL), 72 hours, relative to TGF-β1 only
# How it was run: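 MRC5 cells given compound at 10 μM, then TGF-β1 (10 ng/mL) 2 h later; after 72 h, lysates probed for α-SMA by Western blot. Inhibition is α-SMA level relative to TGF-β1 alone, binned A ≥70%, B 50–<70%, C <50%.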
row,Structure (SMILES),inhibition at 10 µM [%]
1,"CC(C(=O)N1CCN(c2ccccc2)c2cc(F)ccc21)N1CCCCC1 (stereo not drawn) [Compound 12, 1-(6-fluoro-4-phenyl-3,4-dihydroquinoxaline-1(2H)-yl)-2-(piperidin-1-yl)propan-1-one]",≥ 70
2,"O=C(CCN1CCCCC1)N1CCN(c2ccc(F)cc2)c2cc(F)ccc21 [Compound 38, 1-(6-fluoro-4-(4-fluorophenyl)-3,4-dihydroquinoxaline-1(2H)-yl)-3-(piperidin-1-yl)propan-1-one]",≥ 70
3,"CC(C(=O)N1CCN(CC2CC2)c2ccccc21)N1CCN(C)CC1 (stereo not drawn) [Compound 166, 1-(4-(cyclopropylmethyl)-3,4-dihydroquinoxaline-1(2H)-yl)-2-(4-methylpiperazin-1-yl)propan-1-one]",< 50
4,"CC(C)CN1CCN(C(=O)CCN2CCCCC2)c2ccccc21 [Compound 169, 1-(4-isobutyl-3,4-dihydroquinoxaline-1(2H)-yl)-3-(piperidin-1-yl)propan-1-one]",50 to 70
5,"CC(C)CN1CCN(C(=O)CCN2CCN(C)CC2)c2ccccc21 [Compound 170, 1-(4-isobutyl-3,4-dihydroquinoxaline-1(2H)-yl)-3-(4-methylpiperazin-1-yl)propan-1-one di L-tartrate]",50 to 70
6,"CC(C)CN1CCN(C(=O)C(C)N2CCCCC2)c2ccccc21 (stereo not drawn) [Compound 172, 1-(4-isobutyl-3,4-dihydroquinoxaline-1(2H)-yl)-2-(piperidin-1-yl)propan-1-one]",< 50
7,"CC(C)CN1CCN(C(=O)C(C)N2CCN(C)CC2)c2ccccc21 (stereo not drawn) [Compound 173, 1-(4-isobutyl-3,4-dihydroquinoxaline-1(2H)-yl)-2-(4-methylpiperazin-1-yl)propan-1-one]",50 to 70
8,"CC(C)CN1CCN(C(=O)CN2CCCC2)c2ccccc21 [Compound 174, 1-(4-isobutyl-3,4-dihydroquinoxaline-1(2H)-yl)-2-(pyrrolidin-1-yl)ethan-1-one]",50 to 70
9,"CC(C)CN1CCN(C(=O)CN2CCCCC2)c2ccccc21 [Compound 175, 1-(4-isobutyl-3,4-dihydroquinoxaline-1(2H)-yl)-2-(piperidin-1-yl)ethan-1-one]",< 50
10,"CC(C)CN1CCN(C(=O)CN2CCN(C)CC2)c2ccccc21 [Compound 176, 1-(4-isobutyl-3,4-dihydroquinoxaline-1(2H)-yl)-2-(4-methylpiperazin-1-yl)ethan-1-one]",< 50
11,"CC(C)N1CCN(C(=O)CCN2CCCC2)c2ccccc21 [Compound 177, 1-(4-isopropyl-3,4-dihydroquinoxaline-1(2H)-yl)-3-(pyrrolidin-1-yl)propan-1-one]",< 50
12,"CC(C)N1CCN(C(=O)CCN2CCCCC2)c2ccccc21 [Compound 178, 1-(4-isopropyl-3,4-dihydroquinoxaline-1(2H)-yl)-3-(piperidin-1-yl)propan-1-one]",< 50
13,"CC(C)N1CCN(C(=O)CCN2CCN(C)CC2)c2ccccc21 [Compound 179, 1-(4-isopropyl-3,4-dihydroquinoxaline-1(2H)-yl)-3-(4-methylpiperazin-1-yl)propan-1-one]",< 50
14,"CC(C(=O)N1CCN(C(C)C)c2ccccc21)N1CCCCC1 (stereo not drawn) [Compound 181, 1-(4-isopropyl-3,4-dihydroquinoxaline-1(2H)-yl)-2-(piperidin-1-yl)propan-1-one]",< 50
15,"CC(C(=O)N1CCN(C(C)C)c2ccccc21)N1CCN(C)CC1 (stereo not drawn) [Compound 182, 1-(4-isopropyl-3,4-dihydroquinoxaline-1(2H)-yl)-2-(4-methylpiperazin-1-yl)propan-1-one]",< 50
16,"CC(C)N1CCN(C(=O)CN2CCCCC2)c2ccccc21 [Compound 184, 1-(4-isopropyl-3,4-dihydroquinoxaline-1(2H)-yl)-2-(piperidin-1-yl)ethan-1-one]",< 50

row,Structure (SMILES),inhibition at 10 µM [%]
1,"O=C(CCN1CCCC1)N1CCN(C2CCCCC2)c2ccccc21 [Compound 186, 1-(4-cyclohexyl-3,4-dihydroquinoxaline-1(2H)-yl)-3-(pyrrolidin-1-yl)propan-1-one]",50 to 70
2,"O=C(CCN1CCCCC1)N1CCN(C2CCCCC2)c2ccccc21 [Compound 187, 1-(4-cyclohexyl-3,4-dihydroquinoxaline-1(2H)-yl)-3-(piperidin-1-yl)propan-1-one]",≥ 70
3,"CN1CCN(CCC(=O)N2CCN(C3CCCCC3)c3ccccc32)CC1 [Compound 188, 1-(4-cyclohexyl-3,4-dihydroquinoxaline-1(2H)-yl)-3-(4-methylpiperazin-1-yl)propan-1-one]",50 to 70
4,"CC(C(=O)N1CCN(C2CCCCC2)c2ccccc21)N1CCCCC1 (stereo not drawn) [Compound 191, 1-(4-cyclohexyl-3,4-dihydroquinoxaline-1(2H)-yl)-2-(piperidin-1-yl)propan-1-one]",50 to 70
5,"CC(C(=O)N1CCN(C2CCCCC2)c2ccccc21)N1CCN(C)CC1 (stereo not drawn) [Compound 192, 1-(4-cyclohexyl-3,4-dihydroquinoxaline-1(2H)-yl)-2-(4-methylpiperazin-1-yl)propan-1-one]",< 50
6,"O=C(CN1CCCC1)N1CCN(C2CCCCC2)c2ccccc21 [Compound 193, 1-(4-cyclohexyl-3,4-dihydroquinoxaline-1(2H)-yl)-2-(pyrrolidin-1-yl)ethan-1-one]",< 50
7,"O=C(CN1CCCCC1)N1CCN(C2CCCCC2)c2ccccc21 [Compound 194, 1-(4-cyclohexyl-3,4-dihydroquinoxaline-1(2H)-yl)-2-(piperidin-1-yl)ethan-1-one]",< 50
8,"O=C(CCN1CCCC1)N1CCN(C(=O)c2ccccc2)c2ccccc21 [Compound 196, 1-(4-benzoyl-3,4-dihydroquinoxaline-1(2H)-yl)-3-(pyrrolidin-1-yl)propan-1-one]",< 50
9,"CN1CCN(CCC(=O)N2CCN(C(=O)c3ccccc3)c3ccccc32)CC1 [Compound 198, 1-(4-benzoyl-3,4-dihydroquinoxaline-1(2H)-yl)-3-(4-methylpiperazin-1-yl)propan-1-one]",< 50
10,"CC(C(=O)N1CCN(C(=O)c2ccccc2)c2ccccc21)N1CCCC1 (stereo not drawn) [Compound 199, 1-(4-benzoyl-3,4-dihydroquinoxaline-1(2H)-yl)-2-(pyrrolidin-1-yl)propan-1-one]",< 50
11,"CC(C(=O)N1CCN(C(=O)c2ccccc2)c2ccccc21)N1CCCCC1 (stereo not drawn) [Compound 200, 1-(4-benzoyl-3,4-dihydroquinoxaline-1(2H)-yl)-2-(piperidin-1-yl)propan-1-one]",< 50
12,"CC(C(=O)N1CCN(C(=O)c2ccccc2)c2ccccc21)N1CCN(C)CC1 (stereo not drawn) [Compound 201, 1-(4-benzoyl-3,4-dihydroquinoxaline-1(2H)-yl)-2-(4-methylpiperazin-1-yl)propan-1-one]",< 50
13,"O=C(CN1CCCC1)N1CCN(C(=O)c2ccccc2)c2ccccc21 [Compound 202, 1-(4-benzoyl-3,4-dihydroquinoxaline-1(2H)-yl)-2-(pyrrolidin-1-yl)ethan-1-one]",< 50
14,"O=C(CN1CCCCC1)N1CCN(C(=O)c2ccccc2)c2ccccc21 [Compound 203, 1-(4-benzoyl-3,4-dihydroquinoxaline-1(2H)-yl)-2-(piperidin-1-yl)ethan-1-one]",< 50
15,"CN1CCN(CC(=O)N2CCN(C(=O)c3ccccc3)c3ccccc32)CC1 [Compound 204, 1-(4-benzoyl-3,4-dihydroquinoxaline-1(2H)-yl)-2-(4-methylpiperazin-1-yl)ethan-1-one]",< 50

# Reference: patent publication US20250002464A1, “NOVEL COMPOUND AND PHARMACEUTICAL COMPOSITION COMPRISING SAME” (SAPIENSBIO INC., priority 2021, published 2025)
